Test results as given in ChEMBL document CHEMBL1201862, “PubChem BioAssay data set” (2004).
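1) Cells in 96-well plates. 2) Compound, 48 h, 5 concentrations. 3) Linear interpolation between surrounding doses. 4) Unreached endpoint = highest concentration. GI50 is the concentration that inhibits growth by half.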 Active and inactive are the calls of the source. No stated cut-off is given here; in the data, active = GI50 up to about 1.1 µM and inactive = higher.

Columns and labels:
Assay in all cases: DTP human tumour cell line panel, 48 h
OVCAR-5 = tested on: OVCAR-5
SF-539 = tested on: SF-539
786-0 = tested on: 786-0
RPMI-8226 = tested on: RPMI-8226
SNB-75 = tested on: SNB-75
U-251 = tested on: U-251
RXF 393 = tested on: RXF 393
SK-MEL-5 = tested on: SK-MEL-5
HOP-92 = tested on: HOP-92
MOLT-4 = tested on: MOLT-4
HCT-15 = tested on: HCT-15
Malme-3M = tested on: Malme-3M
TK-10 = tested on: TK-10
HOP-62 = tested on: HOP-62
SF-268 = tested on: SF-268
SNB-19 = tested on: SNB-19
IGROV-1 = tested on: IGROV-1
KM12 = tested on: KM12
LOX IMVI = tested on: LOX IMVI
COLO 205 = tested on: COLO 205
NCI-H23 = tested on: NCI-H23
SF-295 = tested on: SF-295
OVCAR-8 = tested on: OVCAR-8
K562 = tested on: K562
SK-MEL-2 = tested on: SK-MEL-2
HL-60 = tested on: HL-60
UACC-257 = tested on: UACC-257
SK-OV-3 = tested on: SK-OV-3
HT-29 = tested on: HT-29
NCI-H460 = tested on: NCI-H460
SK-MEL-28 = tested on: SK-MEL-28
BT-549 = tested on: BT-549
OVCAR-4 = tested on: OVCAR-4
Hs-578T = tested on: Hs-578T
NCI-H522 = tested on: NCI-H522
HCT-116 = tested on: HCT-116
SW-620 = tested on: SW-620
SN12C = tested on: SN12C
T47D = tested on: T47D
PC-3 = tested on: PC-3
SR = tested on: SR
A549 = tested on: A549
UO-31 = tested on: UO-31
DU-145 = tested on: DU-145
M14 = tested on: M14
MDA-N = tested on: MDA-N
NCI/ADR-RES = tested on: NCI/ADR-RES
MDA-MB-231 = tested on: MDA-MB-231
CCRF-CEM = tested on: CCRF-CEM
ACHN = tested on: ACHN
EKVX = tested on: EKVX
UACC-62 = tested on: UACC-62
MCF7 = tested on: MCF7
CAKI-1 = tested on: CAKI-1
MDA-MB-435 = tested on: MDA-MB-435

Q: What does the source list for `Cc1ccc(S(=O)(=O)NC(=O)NC(Cc2c[nH]c3ccccc23)C(=O)O)cc1` (centres undefined)?
A: GI50 (OVCAR-5): > 100 µM (inactive); GI50 (SF-539): > 100 µM (inactive); GI50 (786-0): > 100 µM (inactive); GI50 (RPMI-8226): > 100 µM (inactive); GI50 (SNB-75): > 100 µM (inactive); GI50 (U-251): > 100 µM (inactive); GI50 (RXF 393): > 100 µM (inactive); GI50 (SK-MEL-5): > 100 µM (inactive); GI50 (HOP-92): > 100 µM (inactive); GI50 (MOLT-4): > 100 µM (inactive); GI50 (HCT-15): > 100 µM; GI50 (Malme-3M): > 100 µM (inactive); GI50 (TK-10): > 100 µM (inactive); GI50 (HOP-62): > 100 µM (inactive); GI50 (SF-268): > 100 µM (inactive); GI50 (SNB-19): > 100 µM (inactive); GI50 (IGROV-1): > 100 µM (inactive); GI50 (KM12): > 100 µM (inactive); GI50 (LOX IMVI): > 100 µM (inactive); GI50 (COLO 205): > 100 µM (inactive); GI50 (NCI-H23): > 100 µM (inactive); GI50 (SF-295): > 100 µM (inactive); GI50 (OVCAR-8): > 100 µM (inactive); GI50 (K562): > 100 µM (inactive); GI50 (SK-MEL-2): > 100 µM (inactive); GI50 (HL-60): > 100 µM (inactive); GI50 (UACC-257): > 100 µM (inactive); GI50 (SK-OV-3): > 100 µM (inactive); GI50 (HT-29): > 100 µM (inactive); GI50 (NCI-H460): > 100 µM (inactive); GI50 (SK-MEL-28): > 100 µM (inactive); GI50 (BT-549): > 100 µM (inactive); GI50 (OVCAR-4): > 100 µM (inactive); GI50 (Hs-578T): > 100 µM (inactive); GI50 (NCI-H522): > 100 µM (inactive); GI50 (HCT-116): > 100 µM (inactive); GI50 (SW-620): > 100 µM (inactive); GI50 (SN12C): > 100 µM (inactive); GI50 (T47D): > 100 µM (inactive); GI50 (PC-3): > 100 µM (inactive); GI50 (SR): > 100 µM (inactive); GI50 (A549): > 100 µM (inactive); GI50 (UO-31): > 100 µM (inactive); GI50 (DU-145): > 100 µM (inactive); GI50 (M14): > 100 µM (inactive); GI50 (MDA-N): > 100 µM (inactive); GI50 (NCI/ADR-RES): > 100 µM (inactive); GI50 (MDA-MB-231): > 100 µM (inactive); GI50 (CCRF-CEM): > 100 µM (inactive)

Q: What does the source list for `COC[C@@H](/N=C/c1ccc(OC)cc1)C(C)C`?
A: GI50 (OVCAR-5): > 100 µM (inactive); GI50 (ACHN): > 100 µM (inactive); GI50 (786-0): > 100 µM (inactive); GI50 (RPMI-8226): > 100 µM (inactive); GI50 (SNB-75): > 100 µM (inactive); GI50 (U-251): > 100 µM (inactive); GI50 (RXF 393): > 100 µM (inactive); GI50 (SK-MEL-5): > 100 µM (inactive); GI50 (EKVX): > 100 µM (inactive); GI50 (MOLT-4): > 100 µM (inactive); GI50 (HCT-15): > 100 µM; GI50 (Malme-3M): > 100 µM (inactive); GI50 (TK-10): > 100 µM (inactive); GI50 (HOP-62): > 100 µM (inactive); GI50 (SF-268): > 100 µM (inactive); GI50 (IGROV-1): > 100 µM (inactive); GI50 (KM12): > 100 µM (inactive); GI50 (LOX IMVI): > 100 µM (inactive); GI50 (COLO 205): 80.4 µM (inactive); GI50 (UACC-62): > 100 µM (inactive); GI50 (NCI-H23): > 100 µM (inactive); GI50 (MCF7): > 100 µM (inactive); GI50 (SF-295): > 100 µM (inactive); GI50 (OVCAR-8): > 100 µM (inactive); GI50 (K562): > 100 µM (inactive); GI50 (SK-MEL-2): > 100 µM (inactive); GI50 (UACC-257): > 100 µM (inactive); GI50 (SK-OV-3): > 100 µM (inactive); GI50 (CAKI-1): > 100 µM (inactive); GI50 (HT-29): > 100 µM (inactive); GI50 (NCI-H460): > 100 µM (inactive); GI50 (SK-MEL-28): > 100 µM (inactive); GI50 (BT-549): > 100 µM (inactive); GI50 (OVCAR-4): > 100 µM (inactive); GI50 (Hs-578T): > 100 µM (inactive); GI50 (NCI-H522): > 100 µM (inactive); GI50 (HCT-116): > 100 µM (inactive); GI50 (MDA-MB-435): > 100 µM (inactive); GI50 (SW-620): > 100 µM (inactive); GI50 (SN12C): > 100 µM (inactive); GI50 (T47D): > 100 µM (inactive); GI50 (PC-3): > 100 µM (inactive); GI50 (SR): > 100 µM (inactive); GI50 (A549): > 100 µM (inactive); GI50 (UO-31): > 100 µM (inactive); GI50 (DU-145): > 100 µM (inactive); GI50 (M14): > 100 µM (inactive); GI50 (MDA-N): > 100 µM (inactive); GI50 (NCI/ADR-RES): > 100 µM (inactive); GI50 (CCRF-CEM): > 100 µM (inactive)
